Read-outs that look alike come from different tables or passages of the source.
What was measured:
[1] = tested on: chicken erythrocyte nuclear chromatin; test: Acridine orange staining of chicken erythrocyte nuclear chromatin, fluorescence microscopy; type: binding
Method: Chicken erythrocytes were chosen as one implementation of this invention. These nucleated cells have mature erythrocytes with no RNA. Blood was taken from a mature chicken. The blood was drawn from a wing vein into 50 ml glass heparin containing tubes to prevent clotting. This blood was used to make smears on microscope slides. These blood smeared slides were allowed to dry at room temperature and were stored in microscope boxes.
Solutions of AO were prepared at 5 mM and 10 μM concentrations in distilled water. Microscope slides smeared with chicken erythrocytes were stained by placing the slide into a glass slide holder containing 50 ml of AO solution under static conditions from 2 min to 30 min, followed by three 10 second rinses in distilled water before drying at room temperature. […] Processed slides were stored in the dark then read and photomicrographs taken (Zeiss Model 63 Microscope, 1600 ASA Kodak film) soon after removal from the dark to avoid photobleaching.
(§1) In the example shown in Table 4-1, the chicken erythrocytes were smeared and dried on a microscope slide prior to exposure to two different concentrations of AO (10 μM and 5 mM), rinsed with distilled water, and allowed to dry. Erythrocytes were examined with fluorescence microscopy and the color of the nuclei recorded. […]

[2] = tested on: apChromatin (depurinated chicken erythrocyte nuclear chromatin); test: Acridine orange staining after acid hydrolysis of dsDNA to apurinic acid, fluorescence microscopy; type: binding
Method: Depurination of dsDNA within the nuclear chromatin of chicken erythrocytes was accomplished by using a modification of the Feulgen method (Feulgen and Rossenbeck, 1924). Specifically, the nucleated chicken erythrocyte slide preparations were rinsed in a 1 N solution of HCl at room temperature for 60 seconds. This was followed by placement of the slide in a pre-heated (55° C.) solution of 1 N HCl for 10 minutes under static conditions followed by several rinses in distilled water at room temperature. Slides were allowed to dry at room temperature then stained with AO at two different concentrations, one at 5 mM and the other at 10 μM for 15 min and 2 min, respectively. The depurination of DNA was expected to remove the site on the DNA polymer where AO intercalation can occur.
Solutions of AO were prepared at 5 mM and 10 μM concentrations in distilled water. […] Processed slides were stored in the dark then read and photomicrographs taken (Zeiss Model 63 Microscope, 1600 ASA Kodak film) soon after removal from the dark to avoid photobleaching.
as §1

herring sperm dsDNA = test: Acridine orange titrated with dsDNA, absorbance; type: binding; details: AO-DNA
Source text: Experiments were undertaken to characterize the interaction of AO with DNA over a range of DNA base pairs (bp) to AO ratios in the absence of, and in the presence of, a physiological concentration of NaCl. […] The example shown in FIG. 3-6 is a dsDNA bp: AO ratio of selected spectra denoting important transitions within the titration series are denoted with bolder lines. Some of the spectral series is not shown to simplify the data presentation. At bp: AO ratios between 0.0 and 0.75, prevalent peaks occur at 8abs of 468 nm and 492 nm. […] The absorbance spectra from bp: AO ratios above 0.75 denote a definitive red-shift in absorbance with the simultaneous creation of two distinct peaks, one at 475 nm and the other at 503 nm. With continued additions of aliquots of DNA, the absorbance peak near 468 nm is still apparent while the initial main absorbance peak at 492 nm is minimally detectable. […] Additionally, at bp:AO ratios of about 1.72. The absorbance peak near λabs 503 nm increased in amplitude with each additional aliquot of DNA. […] The association constant was calculated from a plot of delta absorbance values at 504 nm versus DNA concentration (see inset FIG. 3-7). The DNA concentrations ranged from 30:M to 170:M.

[3] = AO-AO, AO [20 μM], Kapuscinski & Kimmel, 1993, cited from earlier work
[4] = AO-CAF, cited from earlier work

SMILES | Fluorescent Color ([1]; AO 10 μM) | Fluorescent Color ([1]; AO 5 mM) | Fluorescent Color ([2]; AO 10 μM) | Fluorescent Color ([2]; AO 5 mM) | K ± S.D. (herring sperm dsDNA; Absorbance (504 nm), AO [3 μM], DNA [5-170 μM], hydrochloride) | K ± S.D. (herring sperm dsDNA; Absorbance (504 nm), AO [3 μM], DNA [5-170 μM], listed as AO-DNA, hydrochloride) | K ± S.D. (herring sperm dsDNA; Absorbance, AO [0.1-3 μM], DNA [100 μM]) | K ± S.D. (herring sperm dsDNA; Absorbance, AO [0.8-3.4 μM], DNA [20 μM]) | K ± S.D. ([3]; Absorbance (mathematical model)) | K ± S.D. ([3]; Absorbance plus NaCl 150 mM) | K ± S.D. ([4]; Absorbance plus NaCl 150 mM, AO [20 μM], CAF [1-2000 μM], Kapuscinski & Kimmel, 1993) | K ± S.D. ([4]; Absorbance, AO [10 μM], CAF [1-5000 μM], Larsen et al., 1996) | K ± S.D. ([4]; Absorbance, AO [20 μM], CAF [1-2000 μM], Kapuscinski & Kimmel, 1993)
CN(C)c1ccc2cc3ccc(N(C)C)cc3nc2c1.Cl [AO, 3,6-bis[dimethylamino]acridine hydrochloride] | Green | Red | No Color | Red | 37,660±431 M^−1 | 37,660 ± 431 M^−1 | 33,510 ± 285 M^−1 | 31,960 ± 316 M^−1 | 29,100 M^−1 | 42,500 M^−1 | – | – | –
Cn1c(=O)c2c(ncn2C)n(C)c1=O [1,3,7-trimethyl xanthine (caffeine), 1,3,7-trimethyl xanthine] | – | – | – | – | – | – | – | – | – | – | 169 ± 9 M⁻¹ | 258 ± 5 M⁻¹ | 258 ± 7 M⁻¹

— patent US7662767B2, “Polynucleotide intercalator interceptors and inhibitors” (Materials Evolution and Development USA, Inc., priority 2000, dated 2010)
